The record followed here is patent publication US9228224B2, “Method for assaying OGFOD1 activity” (ISIS INNOVATION LIMITED, priority 2011, dated 2016).

For assay [1], the target named is T1, OGFOD1 (Homo sapiens, UniProt Q8N543).
T1 construct: His6 tag (N-terminal pET-28a leader); made in house; host or cells: E. coli BL21(DE3)
T1 sequence (Q8N543 1-542): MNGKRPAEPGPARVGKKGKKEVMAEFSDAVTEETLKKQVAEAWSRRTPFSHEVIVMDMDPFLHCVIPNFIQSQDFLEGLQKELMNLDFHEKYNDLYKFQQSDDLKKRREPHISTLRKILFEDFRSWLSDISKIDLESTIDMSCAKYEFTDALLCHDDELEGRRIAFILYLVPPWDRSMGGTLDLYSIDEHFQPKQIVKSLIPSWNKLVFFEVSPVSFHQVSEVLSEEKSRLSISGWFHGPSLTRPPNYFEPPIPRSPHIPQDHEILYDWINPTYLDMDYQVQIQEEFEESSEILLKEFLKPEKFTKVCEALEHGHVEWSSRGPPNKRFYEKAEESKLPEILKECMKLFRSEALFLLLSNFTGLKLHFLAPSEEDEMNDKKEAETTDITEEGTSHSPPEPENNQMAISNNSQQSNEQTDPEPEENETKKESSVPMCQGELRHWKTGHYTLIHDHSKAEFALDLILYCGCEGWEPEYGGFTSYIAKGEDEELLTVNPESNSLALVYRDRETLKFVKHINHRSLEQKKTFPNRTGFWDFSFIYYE
The assay can be described thus: OGFOD1-mediated hydroxylation of RPS23 20mer peptide with generic 2OG oxygenase inhibitors. Format: biochemical. The note with it: 1 mM inhibitor. On the procedure: OGFOD1-mediated hydroxylation of the initially identified 20mer peptide sequence of human RPS23 was strictly dependent on presence of 2OG and Fe(II), and hydroxylation was reduced in presence of 1 mM of generic 2OG oxygenase inhibitors such as N-oxalyl glycine (NOG), pyridine 2,4-dicarboxylic acid (2,4-PDCA) and transition metal ions such as Co^II.

In assay [2] the target is T1, OGFOD1. Briefly: MALDI-based hydroxylation assay, inhibitor screen. In kind it is biochemical. The note with it: general statement in the description, no conditions given. The method, then:
A library of 150 compounds comprising known and potential inhibitors of 2OG oxygenases was screened against OGFOD1 by a MALDI-based hydroxylation assay. Single-point measurements were conducted in duplicate, using 4 μM OGFOD1 at 100 μM final compound concentration in the presence of excess (300 μM) 2OG, with incubation at 37° C. for 30 min.

The target of assay [3] is T2, OGFOD1 (hsOGFOD1_FL) (Homo sapiens, UniProt Q8N543).
T2 construct: His6 tag (N-terminal pET-28a leader); made in house; host or cells: E. coli BL21(DE3)
T2 sequence (Q8N543 1-542): T1 sequence (Q8N543 1-542)
The assay can be described thus: Thermal stability shift assay (SYPRO Orange). Format: binding. To be noted: change in apparent protein melting temperature; compound 20 μM, 1 μM hsOGFOD1_FL, 50 μM MnCl2. The method, then:
Assays were conducted in 50 mM HEPES buffer, 150 mM NaCl, pH 7.5. A stock solution of MnCl2 (500 mM) in 20 mM HCl was prepared, and diluted to 5 mM with water. A master mix containing 2.085 mL buffer, 21 μL MnCl2 (5 mM, 50 μM final), 21 μL hsOGFOD1_FL (100 μM, 1 μM final), and 2.1 μL SYPRO Orange dye was prepared. The screen was conducted using stock solutions of compounds (400 μIM in DMSO) at a final concentration of 20 μM, by mixing 1 μL compound stock solution with 19 μL assay master mix. Incubations were performed in a white 96-well RT-PCR plate and subjected to thermal cycling as per an established protocol. Data was analysed in Microsoft Excel and GraphPad Prism.
The effect of small molecules on the stability of proteins to thermal denaturation was assessed by the change in apparent protein melting temperature, defined as the temperature at which equal amounts of folded and unfolded protein exist in solution. Unfolding was quantified by measurement of the fluorescence increase of SYPRO® Orange dye (Invitrogen) upon binding to hydrophobic residues that are exposed during unfolding. Approximately 400 small-molecule compounds were tested at a final concentration of 20 μM. Stabilization data for selected compounds are shown in below. Structures of the compounds are set out below.

In assay [4] the target is T3, full-length OGFOD1 (Homo sapiens, UniProt Q8N543).
T3 construct: His6 tag (N-terminal pET-28a leader); made in house; host or cells: E. coli BL21(DE3)
T3 sequence (Q8N543 1-542): T1 sequence (Q8N543 1-542)
Briefly: 2OG turnover assay. To be noted: 1 mM inhibitor, 37° C., 20 min. Format: biochemical. On the procedure:
Values shown are averages of two or three experiments. Error bars represent standard deviations. The assay was carried out for 20 min at 37° C. using 8 μM recombinant full-length human OGFOD1 (SEQ ID NO:1), 288 μM 2OG, 3.7 μM 1-[^14C]-2OG (specific activity […], stock concentration 1.83 mM), RPS23 peptide, 100 μM (NH4)2Fe(SO4)2, 4 mM ascorbate, 0.66 mg/ml catalase, 1 mM DTT, 50 mM Tris.HCl pH 7.5, and with one of OGFOD1, (NH4)2Fe(SO4)2 and ascorbate missing from the assay. The assay was also performed in the presence of 1 mM pyridine 2,4-dicarboxylic acid (2,4-PDCA).
Constructs of OGFOD1 encoding full-length protein or its C-terminal domain were tested for enzymatic activity using a 2OG turnover assay (Kivirikko and Myllyla (1982) Methods in Enzymology 82: […]). […]
These were diluted to a total volume of 100 μl with 50 mM Tris-Cl buffer, pH 7.5. […] The Eppendorf tubes containing the hyamine hydroxide were transferred to scintillation vials, mixed with 5 mL OptiPhase Liquid Scintillation Cocktail (Fisher Scientific) and total ^14C counts quantified using a Beckman LS6500 Multi-Purpose Scintillation Counter. Conversion of 2OG was calculated from the percentage of 1-[^14C]-2OG that had been converted into gaseous ^14CO2. […]

In assay [5] the target is T1, OGFOD1. Briefly: MALDI assay of OGFOD1 specificity towards RPS23 and RPS23-like peptides. In kind it is biochemical. To be noted: peptide as substrate; 4 μM OGFOD1/100 μM peptide, 37° C., 30 min; symbols not defined. On the procedure: To investigate the specificity of OGFOD1 towards variations in the sequence and length, multiple corresponding to RPS23 and RPS23-like sequences were synthesized and tested. MALDI assays were performed using a 1:25 protein:peptide (4 μM/100 μM) ratio, with incubation at 37° C. for 30 min.
Mutation of prolyl to alanine or isoleucine residues completely abolished hydroxylation, providing further evidence for OGFOD1 acting as a prolyl hydroxylase. […] This observation is consistent with the high evolutionary conservation of the amino acids following, but not of those preceding the prolyl (Pro-62) residue in RPS23.

Turning to `O=C(O)CNC(=O)C(=O)O` [N-oxalylglycine], the “hydroxylation of RPS23 20mer peptide” value in assay [1] is “reduced”. For the same compound, in assay [2], the “inhibition of OGFOD1 prolyl hydroxylase activity” value (“inhibition” below) was “inhibitory”.

For `O=C(O)c1ccnc(C(=O)O)c1` [Compound 11, Pyridine 2,4-dicarboxylic acid], the “hydroxylation of RPS23 20mer peptide” value in assay [1] is “reduced”. Also, in assay [3], the “Stabilization (° C.)” value was “+6.7 °C”. Also, the “OGFOD1-catalyzed 2OG turnover” value in assay [4] is given as “inhibited”. Besides, the “inhibition” value in assay [2] is on record as “inhibitory”.

Consider “CODD: PHD2 C-terminal oxygen-dependent degradation domain (CODD) substrate of HIF-1α”, for which the Hydroxylation entry in assay [5] is “No hydroxylation”.

Regarding `O=C(O)CCC(=O)Nc1ccc(Br)cn1` [Compound 6], in assay [3], the “Stabilization (° C.)” value was “+7.0 °C”.

`N#Cc1ccc2c(=O)c(C(=O)O)c[nH]c2c1` [Compound 7]: the “Stabilization (° C.)” value in assay [3] is “+7.5 °C”.

Take `O=C(O)CCC(=O)NNS(=O)(=O)c1ccccc1` [Compound 3]: in assay [3], the “Stabilization (° C.)” value was “+7.1 °C”.

As for `CC(NC(=O)C(=O)O)C(=O)O` (centres unmarked) [Compound 9], the “Stabilization (° C.)” value in assay [3] is “+6.3 °C”.

Regarding `O=C(O)CCC(=O)Nc1cc2ccccc2cn1` [Compound 1], the “Stabilization (° C.)” value in assay [3] is “+8.4 °C”.

`O=C(O)c1cc(O)c(O)c(O)c1` [gallic acid]: the “inhibition” value in assay [2] is given as “inhibitory”.

Regarding `O=C(O)CNC(=O)c1nc(Cl)c2ccccc2c1O` [Compound 4, 2-(1-Chloro-4-hydroxyisoquinoline-3-carboxamido)acetic acid], in assay [3], the “Stabilization (° C.)” value is “+7.0 °C”. The results for the “inhibition” value in assay [2] and in assay [2] (listed as FG2216) were “inhibit OGFOD1” and “inhibitory”, respectively.

As to `O=C(O)CCNC(=O)c1nc2ccccc2cc1O` [Compound 10], the “Stabilization (° C.)” value in assay [3] is “+7.2 °C”.

Regarding `O=C(O)c1ccnc(-c2cc(C(=O)O)ccn2)c1` [Compound 5], the “Stabilization (° C.)” value in assay [3] was “+7.5 °C”.

Turning to `CCC(=O)C1C(=O)CC(C(=O)O)CC1=O` (centres unmarked) [Compound 8, Prohexadione], the “Stabilization (° C.)” value in assay [3] was “+6.9 °C”.

For `O=C(O)CCC(=O)NNC(=O)c1ccc2ccccc2c1` [Compound 2], the “Stabilization (° C.)” value in assay [3] was “+7.1 °C”.
